Laboratory results taken from patent US11292812B2, “3′3′-cyclic dinucleotides” (Institute of Organic Chemistry and Biochemistry, ASCR, V.V.I, priority 2018, dated 2022).

Experiments:
AQ STING (G230A-R293Q) = target: T1, AQ STING (G230A-R293Q) (Homo sapiens, UniProt Q86WV6, G230A/H232R/R293Q); assay: Differential Scanning Fluorimetry with AQ STING; format: binding; settings: thermal shift, truncated human AQ STING 0.1 mg/ml, 150 μM CDN; for ΔTm at 150 µM: read-out: DSF ΔTm AQ STING
T1 construct: truncated human WT STING or AQ STING (amino acid residues 140-343); 8xHis (N, cleaved yes); SUMO (N, cleaved yes); made in house; host or cells: E. coli Rosetta-gami B (DE3)
Procedure: (§1) Purified PCR products were cleaved with restriction enzymes BamHI (cat. #R0136S, NEB, Ipswich, USA) and NotI (cat. #R0189S, NEB, Ipswich, USA) and cloned into the pSUMO vector linearized with the identical enzymes.
(§2) DNase I (cat. #D5025, Sigma Aldrich, Czech Republic) and RNase A (cat. #R6513, Sigma Aldrich, Czech Republic) were added (final concentration 50 μg/ml) together with MgCl2 (final concentration 5 mmol·l^−1) to the homogenate and bacteria were lysed using French Press G-M™ High-Pressure Cell Press Homogenizer (1500 psi, 3 cycles). […] The resin was poured into a chromatography column, washed with 50 ml buffer A (50 mmol·l^−1 TrisCl (pH 8.0), 800 mmol·l^−1 NaCl, 3 mmol·l^−1 β-mercaptoethanol; 10% glycerol; 20 mmol·l^−1 imidazole) and 8-His-SUMO tagged STING proteins were eluted with 15 ml buffer A containing 300 mmol·l^−1 imidazole. […] Proteins were concentrated with Amicon® Ultra-15 10 K device (cat. #UFC901008, Merck Millipore, Billerica, USA) and flash frozen in liquid N2.
(§3) 20 μL solutions of the reaction mixtures were pipetted in triplicates into 96 well optical reaction plates and thermal denaturation of samples were performed on real time PCR cycler (LightCycler® 480 Instrument II—Roche, Basel, Switzerland). The first derivative of the thermal denaturation curves was performed to calculate denaturing temperatures of STING-CDN complexes and STING apoproteins. The thermal shift for each CDN was calculated by subtracting the average denaturing temperature of STING apoprotein from the average denaturing temperature of STING CDN complex.

WT STING [1] = target: T2, WT STING (Homo sapiens, UniProt Q86WV6, H232R); assay: Differential Scanning Fluorimetry with WT STING; format: binding; set-up: truncated human WT STING or AQ STING (amino acid residues 140-343); 8xHis (N, cleaved yes); SUMO (N, cleaved yes); made in house; host or cells: E. coli Rosetta-gami B (DE3); settings: thermal shift, truncated human WT STING 0.1 mg/ml, 150 μM CDN; for ΔTm at 150 µM: read-out: DSF ΔTm WT STING
Procedure: as §1, §2, §3
Target sequence in this assay (Q86WV6 140-343 H232R): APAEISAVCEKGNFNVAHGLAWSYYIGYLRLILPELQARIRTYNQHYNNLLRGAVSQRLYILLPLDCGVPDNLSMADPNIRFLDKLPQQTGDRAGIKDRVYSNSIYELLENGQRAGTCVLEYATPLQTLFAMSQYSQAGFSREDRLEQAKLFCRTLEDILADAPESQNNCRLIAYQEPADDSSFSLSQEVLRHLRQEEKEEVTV

WT STING [2] = target: T2, WT STING; assay: Digitonin assay using 293T wtSTING-FL reporter cells; format: cell-based; settings: 293T wtSTING-FL cells, ISRE firefly luciferase reporter, digitonin buffer 30 minutes, then 5 hours
From the text: Two complementary oligonucleotides of the sequence […] […] […] […] […] […] […] The oligonucleotides were mixed in equal molar amounts, hybridized, and cleaved by restriction endonucleases HindIII (cat. #. R0104S, NEB, Ipswich, USA) and BglII (cat. #R0144S, NEB, Ipswich, USA). Ultimately, they were ligated into plasmid pGL4.27 (cat. #E6651, Promega, Madison, USA) linearized with the same enzymes. As result the sequence with four ISRE sites was placed upstream of the minimum promoter of firefly luciferase reporter gene.
After 5 minutes incubation at room temperature (RT), 250 μL of the mixture was added dropwise to the cells in one well. Cells were incubated 36 hours at 37° C. with 5% CO2, and then detached with 0.05% Trypsin and 0.22 g/L EDTA (both cat. #L0941, Biowest, Riverside, USA).
Transfected cells were seeded onto poly-D-lysine coated six well plates at density 50,000 cells per 1 cm^2 in DMEM medium with high glucose containing 10% heat inactivated FBS, 30 μg/mL blasticidin (cat. #ant-bl-05, InvivoGen, San Diego, USA), 0.06 mg/ml Penicillin G and 0.1 mg/ml Streptomycin Sulfate (both cat. #. L0018, Biowest, Riverside, USA). The medium was replenished every 3-4 days until visible colonies of cells resistant to blasticidin were formed.
Blasticidin resistant cells stably expressing WT STING were further transfected with pGL64.27-4×ISRE plasmid following the same procedure as described above. […] Homogeneous culture of stably double transfected cells was prepared by limiting dilution of cells in 96 well plates and wells with cells were selected that originated from a single cell.
The medium was removed next day and three fold serial dilutions of compounds in Digitonin buffer containing 50 mmol·l^−1 HEPES (cat. #H3375, Sigma Aldrich, Czech Republic) pH 7.0, 100 mmol·l^−1 KCl, 3 mmol·l^−1 MgCl2, 0.1 mmol·l^−1 DTT (cat. #D0632, Sigma Aldrich, Czech Republic), 85 mmol·l^−1 Sucrose (cat. #S7903, Sigma Aldrich, Česká Republika), 0.2% BSA (cat. #A2153, Sigma Aldrich, Czech Republic), 1 mmol·l^−1 ATP (cat. #A1852, Sigma Aldrich, Czech Republic), 0.1 mmol·l^−1 GTP (cat. #G8877, Sigma Aldrich, Czech Republic), and 10 μg/mL Digitonin A (cat. #D141, Sigma Aldrich, Czech Republic) were added to the cells. The buffer was removed after 30 minutes incubation at 37° C. with 5% CO2, the cells were washed once with 100 μl of cultivation medium, and 100 μl of medium was added to each well. The plates with cells were incubated for 5 hours at 37° C. with 5% CO2, 50 μl of the medium was removed and 30 μl of ONE-Glo™ Luciferase Assay System reagent (cat. #E6120, Promega, Madison, USA) was added to each well. Luminesce was read on Synergy H1 (Biotek, Winooski, USA).
Target sequence in this assay (Q86WV6 whole entry H232R, the tested form may be a part): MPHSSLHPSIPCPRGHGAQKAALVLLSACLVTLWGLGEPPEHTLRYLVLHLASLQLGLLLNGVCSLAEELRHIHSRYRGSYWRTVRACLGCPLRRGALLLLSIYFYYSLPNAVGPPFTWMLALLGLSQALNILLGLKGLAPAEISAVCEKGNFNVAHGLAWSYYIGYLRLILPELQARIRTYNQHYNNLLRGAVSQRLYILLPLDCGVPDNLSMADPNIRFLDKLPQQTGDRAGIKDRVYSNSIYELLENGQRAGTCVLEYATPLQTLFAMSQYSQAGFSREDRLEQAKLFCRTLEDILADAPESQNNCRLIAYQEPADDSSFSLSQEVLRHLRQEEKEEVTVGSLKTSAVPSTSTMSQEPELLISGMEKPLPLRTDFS

T1 sequence (Q86WV6 140-343 G230A/H232R/R293Q): as the sequence (Q86WV6 140-343 H232R) above, with G91A, R154Q counted along it

ΔTm at 150 µM (AQ STING (G230A-R293Q)) | ΔTm at 150 µM (WT STING [1]) | EC50 (WT STING [2]) | DSF ΔTm AQ STING (AQ STING (G230A-R293Q)) | DSF ΔTm WT STING (WT STING [1]) | Molecule
15 °C | 5.6 °C | 30 nM | – | – | Nc1nc2c(ncn2[C@@H]2O[C@@H]3COP(=O)(O)COC4C(F)[C@H](n5cnc6c(N)ncnc65)O[C@@H]4COP(=O)(O)OC3C2O)c(=O)[nH]1 (stereo partly drawn) [Example 7, 2-amino-9-((2R,3R,3aS,7aR,9R,10R,10aR,15aR)-9-(6-amino-9H-purin-9-yl)-10-fluoro-3,5,13-trihydroxy-5,13-dioxidodecahydro-2H-difuro[3,2-d:3′,2′-k][1,3,7,10]tetraoxa[2,8]diphosphacyclotridecin-2-yl)-1,9-dihydro-6H-purin-6-one]
11.2 °C | 3.8 °C | 90 nM | – | – | Nc1nc2c(ncn2[C@H]2CC3OCP(=O)(O)OC[C@H]4O[C@@H](n5cnc6c(N)ncnc65)C(F)C4OP(=O)(O)OC[C@H]3O2)c(=O)[nH]1 (stereo partly drawn) [Example 14, 2-amino-9-((2R,3R,3aR,7aR,9R,10aS,15aR)-2-(6-amino-9H-purin-9-yl)-3-fluoro-5,13-dihydroxy-5,13-dioxidodecahydro-2H-difuro[3,2-d:3′,2′-k][1,3,7,10]tetraoxa[2,8]diphosphacyclotridecin-9-yl)-1,9-dihydro-6H-purin-6-one]
– | – | 10400 nM | 3.3 °C | 0.1 °C | 2-amino-9-((2R,3R,3aS,7aR,9R,10R,10aS,15aR)-2-(6-amino-9H-purin-9-yl)-3,5,10,13-tetrahydroxy-5,13-dioxidodecahydro-2H-difuro[3,2-d:3′,2′-k][1,3,7,10]tetraoxa[2,8]diphosphacyclotridecin-9-yl)-1,9-dihydro-6H-purin-6-one [Example 2]
– | – | > 100000 nM | 0.1 °C | 0.1 °C | Nc1ncnc2c1ncn2[C@@H]1O[C@@H]2COP(=O)(O)COC3C(O)[C@H](n4cnc5c(N)ncnc54)O[C@@H]3COP(=O)(O)COC2C1O (stereo partly drawn) [Example 9, (2R,3S,3aS,8aR,10R,11S,11aS,16aR)-2,10-bis(6-amino-9H-purin-9-yl)-3,6,11,14-tetrahydroxvdodecahydrodifuro[3,2-e:3′,2′-l][1,4,8,11]tetraoxa[2,9]diphosphacyclotetradecine 6,14-dioxide]
18.6 °C | 10.7 °C | 8 nM | – | – | Nc1nc2c(ncn2[C@@H]2O[C@@H]3COP(=O)(O)COC4C(F)[C@H](n5cnc6c(N)ncnc65)O[C@@H]4COP(=O)(O)OC3C2F)c(=O)[nH]1 (stereo partly drawn) [Example 8, 2-amino-9-((2R,3R,3aR,7aR,9R,10R,10aR,15aR)-9-(6-amino-9H-purin-9-yl)-3,10-difluoro-5,13-dihydrox-5,13-diox-idodecahdro-2H-difuro[3,2-d:3′,2′-k][1,3,7,10]tetraoxa[2,8]diphosphacyclotridecin-2-yl)-1,9-dihydro-6H-purin-6-one]
– | – | 5800 nM | 7.7 °C | 2.6 °C | Nc1nc2c(ncn2[C@@H]2O[C@@H]3COP(=O)(O)O[C@H]4[C@@H](O)[C@H](n5cnc6c(=O)[nH]c(N)nc65)O[C@@H]4COP(=O)(O)O[C@H]3[C@H]2O)c(=O)[nH]1 [3′3′-c-di-GMP, reference compound]
